Reference: US20100173914A1, “PHARMACEUTICALS, COMPOSITIONS AND METHODS OF MAKING AND USING THE SAME” (priority 2007, published 2010)

Tests used:
[1] = cited from earlier work
[2] = target: T1, human adenosine A1 receptors (Homo sapiens, UniProt P30542); assay: Adenosine receptor binding: binding affinities at hA1 receptors ([3H]DPCPX displacement); conditions: displacement of [3H]DPCPX, membranes of CHO-K1 cells transfected with human A1
T1 construct: expressed in transfected cells; host or cells: CHO-K1
T1 sequence (P30542 1-326): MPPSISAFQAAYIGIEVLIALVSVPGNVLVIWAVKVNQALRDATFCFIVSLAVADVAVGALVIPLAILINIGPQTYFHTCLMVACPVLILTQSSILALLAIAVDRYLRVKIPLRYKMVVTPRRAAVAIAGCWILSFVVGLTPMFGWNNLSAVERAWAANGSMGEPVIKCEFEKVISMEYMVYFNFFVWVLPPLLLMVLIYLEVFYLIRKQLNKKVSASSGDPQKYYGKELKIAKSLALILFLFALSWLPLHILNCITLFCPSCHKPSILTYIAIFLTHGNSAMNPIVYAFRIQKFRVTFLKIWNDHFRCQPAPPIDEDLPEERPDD
Description: Adenosine Receptor Binding: Binding Affinities at hA1 Receptors
The compounds were examined in an assay measuring in vitro binding to human adenosine A1 receptors by determining the displacement of the adenosine A1 receptor selective radioligand 8-Cyclopentyl-1,3-dipropylxanthine ([^3H]DPCPX) using standard techniques. See, for example, Lohse M J, et al., (1987), 8-Cyclopentyl-1,3-dipropylxanthine (DPCPX)—a selective high affinity antagonist radioligand for A1 adenosine receptors. Naunyn Schmiedebergs Arch Pharmacol., 336(2):204-10, which is incorporated by reference in its entirety.
Frozen CHO-K1 cells (transfected with a human adenosine A1 recepter expression vector) were homogenized in 130 mL of 50 mM Tris HCl buffer (pH 7.5) containing 10 mM MgCl2, and 0.1 IU/mL adenosine deaminase per pellet using a Ultra-Turrax homogeniser. The resultant homogenate was kept for immediate use in the binding. Binding assays were performed in a total volume of 250 μL, containing [^3H]-DPCPX (3.0 nM), membranes and additional drugs. Total binding was determined using drug dilution buffer (50 mM Tris-HCl pH:7.5, 10 mM MgCl2, 5% DMSO). Non-specific binding was determined using 300 μM N6-cyclohexyladenosine (CHA). Following incubation for 90 minutes at 21° C., assays were terminated by rapid filtration with GF/B filters (presoaked in 0.1% (w/v) polyethylenimine) using a Canberra Packard filtermate 196, washed 3 times with ice-cold Tris-HCl (pH 7.4). Filters were left to dry overnight, and Microscint-0 scintillation fluid was then added to the filters. The filters were then left for at least 2 hours before the radioactivity was assessed using a Canberra Packard TopCount microplate scintillation counter.
To determine the free ligand concentration, three vials were counted with 25 μL of [^3H]DPCPX containing 4 mL of Ultima-Gold MV scintillant on a Beckman LS6500 multi-purpose scintillation counter.
(§1) Data was analysed using a 4 parameter logistical equation and non-linear regression which yields affinity constants (pIC50), and slope parameters:
where E is the quantity of binding and [A] is the competitor concentration. The K, is then determined using the Cheng-Prusoff equation: […]

[3] = target: T2, human adenosine A2A receptors (Homo sapiens, UniProt P29274); assay: Adenosine receptor binding: binding affinities at hA2A receptors ([3H]CGS-21680 displacement); conditions: for Ki: displacement of [3H]CGS-21680, HEK-293 cell membranes; for A2A/A1 selectivity ratio (Ki A2A/Ki A1): ratio of measured Ki values at hA2A and hA1
T2 construct: host or cells: HEK-293
Description: Adenosine Receptor Binding: Binding Affinities at hA2A Receptors
The compounds were examined in an assay measuring in vitro binding to human adenosine A2A receptors by determining the displacement of the adenosine A2A receptor selective radioligand 4-[2-[[6-Amino-9-(N-ethyl-β-D-ribofuranuronamidosyl)-9H-purin-2-yl]amino]ethyl]benzenepropanoic acid hydrochloride ([^3H]CGS-21680) using standard techniques. See, for example, Jarvis et al., J Pharmacol Exp Ther., 251(3):888-93, which is incorporated by reference in its entirety.
Frozen HEK-293 cells were homogenized in 65 mL of 50 mM Tris HCl buffer (pH 7.5) containing 10 mM MgCl2, and 0.1 IU/mL adenosine deaminase per pellet using a Ultra-Turrax homogenizer. The resultant homogenate was kept for immediate use in the binding assay.
Binding assays were performed in a total volume of 250 μL, containing [^3H]-CGS21680 (20.0 nM), membranes and additional drugs. Total binding was determined using drug dilution buffer (50 mM Tris-HCl pH 7.5, 10 mM MgCl2, 5% DMSO). Non-specific binding was determined using 300 μM CHA. Following incubation for 90 minutes at 21° C., assays were terminated by rapid filtration with GF/B filters (presoaked in 0.1% (w/v) polyethylenimine) using a Canberra Packard filtermate 196, washed 3 times with ice-cold Tris-HCl (pH 7.4). Filters were left to dry overnight, and Microscint-0 scintillation fluid was then added to the filters. The filters were then left for at least 2 hours before the radioactivity was assessed using a Canberra Packard TopCount microplate scintillation counter.
To determine the free ligand concentration, three vials were counted with 25 μL of [^3H]CGS21680 containing 4 mL of Ultima-Gold MV scintillant on a Beckman LS6500 multi-purpose scintillation counter.
as §1
where E is the quantity of binding and [A] is the competitor concentration. The Ki is then determined using the Cheng-Prusoff equation: […]

[4] = cited from earlier work; remark: listed apart in the source

T2 sequence (P29274 whole entry): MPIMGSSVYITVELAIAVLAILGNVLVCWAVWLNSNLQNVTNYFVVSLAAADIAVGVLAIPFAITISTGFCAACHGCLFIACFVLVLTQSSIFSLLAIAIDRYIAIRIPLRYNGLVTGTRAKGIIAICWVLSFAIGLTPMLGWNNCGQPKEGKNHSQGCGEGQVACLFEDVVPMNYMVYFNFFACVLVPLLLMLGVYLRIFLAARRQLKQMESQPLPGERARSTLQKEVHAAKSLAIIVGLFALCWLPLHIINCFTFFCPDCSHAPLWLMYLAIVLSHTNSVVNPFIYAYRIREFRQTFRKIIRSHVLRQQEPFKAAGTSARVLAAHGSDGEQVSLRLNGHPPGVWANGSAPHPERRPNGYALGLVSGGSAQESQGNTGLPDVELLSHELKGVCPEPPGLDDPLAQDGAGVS

| Compound | Ki [2] [nM] | Ki [3] [nM] | A2A/A1 selectivity ratio (Ki A2A/Ki A1) [3] | other results |
| --- | --- | --- | --- | --- |
| CCCn1c(=O)c2c(nc(/C=C/c3ccc(OC)c(OC)c3)n2C)n(CCC)c1=O [KF 17837, E-8-(3,4-dimethoxystyryl)-1,3-dipropyl-7-methylxanthine] |  |  |  | anticataleptic effects of a subthreshold dose of L-DOPA plus benserazide ([1]; in vivo): potentiated; catalepsy induced by haloperidol and reserpine ([1]; in vivo): reduced; cataleptic responses induced by intracerebroventricular CGS 21680 ([1]; oral administration): significantly ameliorated |
| Cc1cc(Cn2nnc3c(-c4cccs4)nc(N)nc32)ccc1NS(=O)(=O)O [4-[(5-amino-7-(thiophen-2-yl)-3H-[1,2,3]triazolo[4,5-d]pyrimidin-3-yl)methyl]-2-methylphenylsulfamic acid] | 100 to 1000 | ≤ 100 | H (more than 20) |  |
| Cn1c(=O)c2[nH]cnc2n(C)c1=O [Theophylline, 1,3-dimethylxanthine] |  |  |  | serum theophylline levels ([4]; 150 mg/day slow release oral, after one week, Parkinsonian patients): 4.44 mg/L; mean objective disability scores ([4]; 15 Parkinsonian patients, up to 12 weeks, 150 mg/day): significant improvements; patients reporting moderate or marked subjective improvement ([4]; of 15 Parkinsonian patients, up to 12 weeks, 150 mg/day): 11 |
| COc1cc(NS(=O)(=O)O)ccc1Cn1nnc2c(-c3cccs3)nc(N)nc21 [4-[(5-amino-7-(thiophen-2-yl)-3H-[1,2,3]triazolo[4,5-d]pyrimidin-3-yl)methyl]-3-methoxyphenylsulfamic acid] | > 10000 | 1000 to 10000 | F (5 to 10) |  |
| Nc1nc(-c2ccco2)c2nnn(Cc3ccc(NS(=O)(=O)O)cc3)c2n1 [4-[(5-amino-7-(furan-2-yl)-3H-[1,2,3]triazolo[4,5-d]pyrimidin-3-yl)methyl]phenylsulfamic acid] | 1000 to 10000 | ≤ 100 | H (more than 20) |  |
| COc1cc(NS(=O)(=O)O)ccc1Cn1nnc2c(-c3ccco3)nc(N)nc21 [4-[(5-amino-7-(furan-2-yl)-3H-[1,2,3]triazolo[4,5-d]pyrimidin-3-yl)methyl]-3-methoxyphenylsulfamic acid] | > 10000 | 100 to 1000 | G (10 to 20) |  |
| Nc1nc(-c2cccs2)c2nnn(Cc3ccc(NS(=O)(=O)O)cc3)c2n1 [4-[(5-amino-7-(thiophen-2-yl)-3H-[1,2,3]triazolo[4,5-d]pyrimidin-3-yl)methyl]phenylsulfamic acid] | 1000 to 10000 | 100 to 1000 | G (10 to 20) |  |
| Cc1ccc(Cn2nnc3c(-c4ccccc4)nc(N)nc32)cc1NS(=O)(=O)O [5-[(5-amino-7-phenyl-3H-[1,2,3,]triazolo[4,5-d]pyrimidin-3-yl)methyl]-2-methylphenylsulfamic acid] | 100 to 1000 | ≤ 100 | G (10 to 20) |  |
| Nc1nc(-c2ccccc2)c2nnn(Cc3cccc(NS(=O)(=O)O)c3)c2n1 [3-[(5-amino-7-phenyl-3H-[1,2,3]triazolo[4,5-d]pyrimidin-3-yl)methyl]-phenylsulfamic acid] | 1000 to 10000 | ≤ 100 | G (10 to 20) |  |
| COc1cc(Cn2nnc3c(-c4cccs4)nc(N)nc32)ccc1NS(=O)(=O)O [4-[(5-amino-7-(thiophen-2-yl)-3H-[1,2,3]triazolo[4,5-d]pyrimidin-3-yl)methyl]-2-methoxyphenylsulfamic acid] | 1000 to 10000 | 100 to 1000 | H (more than 20) |  |
| COc1ccccc1-c1nc(N)nc2c1nnn2Cc1ccc(NS(=O)(=O)O)c(C)c1 [4-[(5-amino-7-(2-methoxyphenyl)-3H-[1,2,3]triazolo[4,5-d]pyrimidin-3-yl)methyl]-2-methylphenylsulfamic acid] | > 10000 | 1000 to 10000 | E (less than 5) |  |
